Data reported in patent US7914763B1, “Process and apparatus for preparing manganese thiosulfate (MnTS) solution” (Tessenderlo Kerley, Inc., priority 2010, dated 2011).

Experiments:
[1] = pH of the compound as Mn plant nutrient source in water; cited from earlier work
[2] = at 25° C.
Description: Manganese thiosulfate, also referred to herein as “MnTS”, is a liquid source of Mn with up to 20% concentration.

In the case of manganese carbonate [MnCO3], the “respective pH” value [1] is given as 6.4.

In the case of manganese thiosulfate [MnTS], the “Mn concentration of saturated solution of MnTS” value (MnTS prepared by salt exchange of MnSO4 with calcium thiosulfate, evaporated to point of crystal formation, percent by weight) is reported as 5.85 % Mn, the “Solubility of MnTS (saturated solution)” value (saturated solution, corresponding to measured Mn, percent by weight) is reported as about 17 % MnTS and the “Maximum solubility of MnTS” value (solid from evaporation redissolved in aqueous solution at ambient temperature, calculated from Mn concentration) is reported as 17-18%. For the same molecule, the “pH of solution of manganese thiosulfate” value [2] was 5-6.

In the case of `O=S(=O)([O-])[O-].[Mn+2]` [MnSO4, manganese sulfate], the “respective pH” value [1] is listed as 2.8.
